Target: human TRPA1 (Homo sapiens (Human), UniProt O75762)
Assay: hTRPA1 CHO Ca2+ AUC EVO (IC50); FLIPR Tetra block of cinnamaldehyde induced calcium influx
Type: cell-based
Details: CHO cells expressing TRPA1, 75 uM cinnamaldehyde agonist
Protocol: IC50 values ([…]) of compounds on the human and rat TRPA1 channels were determined using a FLIPR Tetra instrument. CHO cells expressing TRPA1 were plated into 384-well plates, incubated overnight at 37 C, and loaded with BD calcium indicator dye for 1 hr at 37° C. followed by 15 minutes. at room temperature. The assay buffer was Hank's Balanced Salt Solution (HBSS) containing 20 mM HEPES (pH readjusted to 7.4) along with 0.02% BSA.
Following dye load and plate cool down, compounds were added to the cells using FLIPR Tetra. Plates were then incubated with compounds for 20 minutes at room temperature prior to adding agonist. Following this incubation, ˜EC80 concentration of cinnamaldehyde (75 uM for human TRPA1 and 45 uM for rat TRPA1) was added to active the channels and block of cinnamaldehyde induced calcium influx was measured.
IC50 values were fit with a standard Hill function, keeping the Hill coefficient (n) fixed to 1.5. Fixing the Hill coefficient will generally reduce variability of the IC50 determination. The IC50 values were individually examined to make sure the MIN and MAX points were set correctly prior to validation of the results.

Chain of human TRPA1 (O75762 whole entry): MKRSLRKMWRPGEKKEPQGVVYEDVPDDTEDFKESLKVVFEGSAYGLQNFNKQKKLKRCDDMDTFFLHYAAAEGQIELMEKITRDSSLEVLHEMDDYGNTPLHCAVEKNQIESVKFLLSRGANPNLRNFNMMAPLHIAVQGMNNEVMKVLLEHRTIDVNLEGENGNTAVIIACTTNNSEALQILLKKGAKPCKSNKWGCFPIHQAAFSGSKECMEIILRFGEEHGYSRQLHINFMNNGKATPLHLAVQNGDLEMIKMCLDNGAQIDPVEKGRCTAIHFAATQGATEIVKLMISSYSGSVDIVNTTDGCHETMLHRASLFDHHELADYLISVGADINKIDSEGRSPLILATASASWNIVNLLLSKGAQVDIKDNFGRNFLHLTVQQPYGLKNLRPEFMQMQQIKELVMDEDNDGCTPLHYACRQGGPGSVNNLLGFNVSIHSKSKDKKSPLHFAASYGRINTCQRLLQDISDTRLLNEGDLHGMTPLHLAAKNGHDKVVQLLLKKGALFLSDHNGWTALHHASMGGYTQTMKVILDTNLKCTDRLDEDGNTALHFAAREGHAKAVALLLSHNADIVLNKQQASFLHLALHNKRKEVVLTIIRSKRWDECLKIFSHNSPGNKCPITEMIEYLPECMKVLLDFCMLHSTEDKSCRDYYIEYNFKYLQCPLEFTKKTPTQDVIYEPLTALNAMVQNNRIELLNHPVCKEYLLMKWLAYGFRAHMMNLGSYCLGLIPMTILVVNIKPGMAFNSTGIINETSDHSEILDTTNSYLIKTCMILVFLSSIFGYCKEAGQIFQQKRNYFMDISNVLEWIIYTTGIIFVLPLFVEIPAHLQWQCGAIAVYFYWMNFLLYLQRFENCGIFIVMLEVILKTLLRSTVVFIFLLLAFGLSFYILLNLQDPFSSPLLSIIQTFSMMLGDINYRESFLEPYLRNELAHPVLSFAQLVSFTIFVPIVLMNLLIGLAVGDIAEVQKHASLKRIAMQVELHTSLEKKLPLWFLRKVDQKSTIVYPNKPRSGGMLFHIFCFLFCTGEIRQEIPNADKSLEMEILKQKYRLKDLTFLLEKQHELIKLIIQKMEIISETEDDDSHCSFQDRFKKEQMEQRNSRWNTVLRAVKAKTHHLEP

Row | Compound | IC50 (Table 1) | IC50 (Table 3)
1 | O=C(Cc1cn(-c2cnc(C(F)(F)F)nc2)nc1C(F)F)N[C@@H]1CC[C@@H]1S(=O)(=O)c1ccc(F)cc1 [Example 9, 2-(3-(difluoromethyl)-1-(2-(trifluoromethyl)pyrimidin-5-yl)-1H-pyrazol-4-yl)-N-((1R,2S)-2-(4-fluorophenylsulfonyl)cyclobutyl)acetamide] | 35.2 nM | 35.2 nM
2 | O=C(NCc1cn(-c2ccc(C(F)(F)F)cc2)nc1C(F)F)[C@@H]1CC[C@@H]1S(=O)(=O)c1ccc(F)cc1 [Example 17, (1S,2S)-N-((3-(difluoromethyl)-1-(4-(trifluoromethyl)phenyl)-1H-pyrazol-4-yl)methyl)-2-(4-fluorophenylsulfonyl) cyclobutanecarboxamide] |  | 24.2 nM
3 | O=C(NCc1cn(-c2ccc(C(F)(F)F)nc2)nc1C(F)F)[C@@H]1CC[C@@H]1S(=O)(=O)c1ccc(F)cc1 [Example 20, (1S,2S)-N-((3-(difluoromethyl)-1-(6-(trifluoromethyl)pyridin-3-yl)-1H-pyrazol-4-yl)methyl)-2-((4-fluorophenyl)sulfonyl) cyclobutanecarboxamide] |  | 98.4 nM
4 | O=C(Cc1cn(-c2cnc(C(F)(F)F)nc2)nc1C1CC1)N[C@@H]1CC[C@@H]1S(=O)(=O)c1ccc(F)cc1 [Example 6, 2-(3-cyclopropyl-1-(2-(trifluoromethyl)pyrimidin-5-yl)-1H-pyrazol-4-yl)-N-((1R,2S)-2-(4-fluorophenylsulfonyl)cyclobutyl)acetamide] | 46.9 nM | 46.9 nM
5 | O=C(NCc1cc(-c2ccc(C(F)(F)F)nc2)ncc1Cl)[C@@H]1CC[C@@H]1S(=O)(=O)c1ccc(F)cc1 [Example 15] |  | 140 nM
6 | O=C(NCc1cn(-c2ccc(C(F)(F)F)cc2)nc1C(F)F)C1CCC1S(=O)(=O)c1ccc(F)cc1 (single isomer, unassigned; enantiomer 2) [Example 18, N-((3-(difluoromethyl)-1-(4-(trifluoromethyl)phenyl)-1H-pyrazol-4-yl)methyl)-2-(4-fluorophenylsulfonyl) cyclobutanecarboxamide (Enantiomer 2)] |  | 96 nM
7 | O=C(NCc1ccc(F)c(-c2cnc(C(F)(F)F)nc2)c1)[C@@H]1CC[C@@H]1S(=O)(=O)c1ccc(F)cc1 [Example 19, (1S,2S)-2-(4-fluorophenyl)sulfonyl-N-[[4-fluoro-3-[2-(trifluoromethyl)pyrimidin-5-yl]phenyl]methyl] cyclobutanecarboxamide] |  | 159 nM
8 | COc1nn(-c2ccc(C(F)(F)F)nc2)cc1CC(=O)NC1CCC1S(=O)(=O)c1ccc(F)cc1 (single isomer, unassigned; enantiomer 2) [Example 12, N-(2-((4-fluorophenyl)sulfonyl)cyclobutyl)-2-(3-methoxy-1-(6-(trifluoromethyl)pyridin-3-yl)-1H-pyrazol-4-yl)acetamide (Enantiomer 2)] |  | 213 nM
9 | O=C(Cc1cn(-c2cnc(C(F)(F)F)nc2)nc1C(F)(F)F)N[C@@H]1CC[C@@H]1S(=O)(=O)c1ccc(F)cc1 [Example 3, N-((1R,2S)-2-(4-fluorophenylsulfonyl)cyclobutyl)-2-(3-(trifluoromethyl)-1-(2-(trifluoromethyl)pyrimidin-5-yl)-1H-pyrazol-4-yl)acetamide] | 7.88 nM | 7.88 nM
10 | COc1nn(-c2ccc(C(F)(F)F)cc2)cc1CC(=O)N[C@@H]1CC[C@@H]1S(=O)(=O)c1ccc(F)cc1 [Example 14, N-((1R,2S)-2-((4-fluorophenyl)sulfonyl)cyclobutyl)-2-(3-methoxy-1-(4-(trifluoromethyl)phenyl)-1H-pyrazol-4-yl)acetamide] | 5.2 nM | 5.2 nM
11 | O=C(NCc1cn(-c2cnc(C(F)(F)F)nc2)nc1C(F)F)[C@@H]1CC[C@@H]1S(=O)(=O)c1ccc(F)cc1 [Example 16, (1S,2S)-N-((3-(difluoromethyl)-1-(2-(trifluoromethyl)pyrimidin-5-yl)-1H-pyrazol-4-yl)methyl)-2-(4-fluorophenylsulfonyl) cyclobutanecarboxamide] |  | 162 nM

The next lines start with the values.

Row | IC50 (Table 1) | IC50 (Table 3) | Compound
12 | 39.2 nM | 39.2 nM | CC1(C(=O)NCc2cn(-c3ccc(C(F)(F)F)nc3)nc2Cl)CCCC1S(=O)(=O)c1ccc(F)cc1 (single isomer, unassigned; enantiomer 1) [Example 31, N-((3-chloro-1-(6-(trifluoromethyl)pyridin-3-yl)-1H-pyrazol-4-yl)methyl)-2-(4-fluorophenylsulfonyl)-1-methylcyclopentanecarboxamide (Enantiomer 1)]
13 |  | 56.7 nM | O=C(NCc1cn(-c2ccc(C(F)(F)F)cc2)nc1Cl)C1CCC1S(=O)(=O)c1ccc(F)cc1 (single isomer, unassigned; enantiomer 3) [Example 30, N-((3-chloro-1-(4-(trifluoromethyl)phenyl)-1H-pyrazol-4-yl)methyl)-2-(4-fluorophenylsulfonyl) cyclobutanecarboxamide (Enantiomer 3)]
14 | 23.9 nM | 23.9 nM | CC1(C(=O)NCc2cn(-c3ccc(C(F)(F)F)cc3)nc2Cl)CCCC1S(=O)(=O)c1ccc(F)cc1 (single isomer, unassigned; enantiomer 2) [Example 37, N-((3-chloro-1-(4-(trifluoromethyl)phenyl)-1H-pyrazol-4-yl)methyl)-2-(4-fluorophenylsulfonyl)-1-methylcyclopentanecarboxamide (Enantiomer 2)]
15 | 41.5 nM | 41.5 nM | O=C(NCc1cn(-c2ccc(C(F)(F)F)nc2)nc1C(F)(F)F)[C@@H]1CC[C@@H]1S(=O)(=O)c1ccc(F)cc1 [Example 24, (1S,2S)-2-(4-fluorophenylsulfonyl)-N-((3-(trifluoromethyl)-1-(6-(trifluoromethyl)pyridin-3-yl)-1H-pyrazol-4-yl)methyl)cyclobutanecarboxamide]
16 |  | 386 nM | O=C(NCc1cc(-c2cccc(C(F)(F)F)c2)ncn1)[C@@H]1CC[C@@H]1S(=O)(=O)c1ccc(F)cc1 [Example 21, (1S,2S)-2-((4-fluorophenyl)sulfonyl)-N-((6-(3-(trifluoromethyl)phenyl)pyrimidin-4-yl)methyl)cyclobutanecarboxamide]
17 |  | 85.7 nM | CC1(C(=O)NCc2cn(-c3ccc(C(F)(F)F)nc3)nc2Cl)CCCC1S(=O)(=O)c1ccc(F)cc1 (single isomer, unassigned; enantiomer 2) [Example 32, N-((3-chloro-1-(6-(trifluoromethyl)pyridin-3-yl)-1H-pyrazol-4-yl)methyl)-2-(4-fluorophenylsulfonyl)-1-methylcyclopentanecarboxamide (Enantiomer 2)]
18 |  | 88.5 nM | CC1(C(=O)NCc2cn(-c3ccc(C(F)(F)F)nc3)nc2Cl)CCCC1S(=O)(=O)c1ccc(F)cc1 (single isomer, unassigned; enantiomer 3) [Example 33, N-((3-chloro-1-(6-(trifluoromethyl)pyridin-3-yl)-1H-pyrazol-4-yl)methyl)-2-(4-fluorophenylsulfonyl)-1-methylcyclopentanecarboxamide (Enantiomer 3)]
19 |  | 218 nM | COc1nn(-c2ccc(C(F)(F)F)nc2)cc1CNC(=O)C1CCCC1S(=O)(=O)c1ccc(F)cc1 (single isomer, unassigned; enantiomer 2) [Example 39, 2-(4-fluorophenylsulfonyl)-N-((3-methoxy-1-(6-(trifluoromethyl)pyridin-3-yl)-1H-pyrazol-4-yl)methyl) cyclopentanecarboxamide (Enantiomer 2)]
20 |  | 90.2 nM | O=C(NCc1cn(-c2ccc(C(F)(F)F)nc2)nc1C(F)(F)F)C1CCC1S(=O)(=O)c1ccc(F)cc1 (single isomer, unassigned; enantiomer 3) [Example 26, 2-(4-fluorophenylsulfonyl)-N-((3-(trifluoromethyl)-1-(6-(trifluoromethyl)pyridin-3-yl)-1H-pyrazol-4-yl)methyl) cyclobutanecarboxamide (Enantiomer 3)]
21 |  | 192 nM | O=C(NCc1cn(-c2ccc(C(F)(F)F)nc2)nc1C(F)(F)F)C1CCC1S(=O)(=O)c1ccc(F)cc1 (single isomer, unassigned; enantiomer 2) [Example 25, 2-(4-fluorophenylsulfonyl)-N-((3-(trifluoromethyl)-1-(6-(trifluoromethyl)pyridin-3-yl)-1H-pyrazol-4-yl)methyl) cyclobutanecarboxamide (Enantiomer 2)]
22 | 38.9 nM | 38.9 nM | O=C(NCc1cn(-c2ccc(C(F)(F)F)cc2)nc1Cl)[C@@H]1CCC[C@@H]1S(=O)(=O)c1ccc(F)cc1 [Example 43, (1S,2S)-N-((3-chloro-1-(4-(trifluoromethyl)phenyl)-1H-pyrazol-4-yl)methyl)-2-(4-fluorophenylsulfonyl) cyclopentanecarboxamide]
23 | 47.1 nM | 47.1 nM | CC1(C(=O)NCc2cn(-c3ccc(C(F)(F)F)cc3)nc2Cl)CCCC1S(=O)(=O)c1ccc(F)cc1 (single isomer, unassigned; enantiomer 3) [Example 38, N-((3-chloro-1-(4-(trifluoromethyl)phenyl)-1H-pyrazol-4-yl)methyl)-2-(4-fluorophenylsulfonyl)-1-methylcyclopentanecarboxamide (Enantiomer 3)]
24 | 19.4 nM | 19.4 nM | O=C(NCc1cn(-c2ccc(C(F)(F)F)cc2)nc1Cl)[C@@H]1CC[C@@H]1S(=O)(=O)c1ccc(F)cc1 [Example 28, (1S,2S)-N-((3-chloro-1-(4-(trifluoromethyl)phenyl)-1H-pyrazol-4-yl)methyl)-2-(4-fluorophenylsulfonyl) cyclobutanecarboxamide]
